From article PMC5395182, “Soaking suggests “alternative facts”: Only co-crystallization discloses major ligand-induced interface rearrangements of a homodimeric tRNA-binding protein indicating a novel mode-of-inhibition” (PLoS ONE, 2017)
Entries after “also recorded” stand apart in the source; their conditions may differ. Read-outs that look alike come from different tables or passages of the source.

Experiments:
Z. mobilis TGT [1] = target: T1, Z. mobilis TGT (Zymomonas mobilis subsp. mobilis, UniProt P28720); parameters: method as in PMID 24955548; conditions: cited from earlier work
T1 construct: Strep-tag II (N, cleaved yes); made in house; host or cells: Escherichia coli

TGT homodimer = test system: T2, TGT homodimer; test: Native ESI-MS of TGT:ligand 1:10 mixtures (dimer destabilization); parameters: species or system Zymomonas mobilis; conditions: for Relative proportion of TGT monomers: 2.5 µM TGT and 25 µM inhibitor (1:10), 1 M NH4Ac pH 7.5, without ligand 3.3 ± 0.7 %; for effect on TGT dimer stability / monomer proportion, in words: compared to measurements in the absence of any ligand, TGT:ligand 1:10
T2 construct: Strep-tag II (N, cleaved yes); made in house; host or cells: Escherichia coli
Description: In order to gain insights into the dimer disturbing potential seen in the crystal structures with the different ligands and to collect evidence for such a behavior also present in solution, native ESI-MS was performed. This technique enables to monitor the oligomerization state of TGT at equilibrium under non-denaturing conditions, in the absence or presence of saturating ligand concentrations. […] To ensure reliability, these comparative experiments were thus carried out adhering to strictly similar conditions (see Materials and methods).
Relative proportions of TGT-monomer signals extracted from individual 1:10 TGT:ligand mixtures (TGT monomer 2.5 μM) were quantified (S7 Fig, S1 Table) and normalized with respect to this value in the absence of any inhibitor.
Nano-ESI-MS analyses were performed as already described in the literature. Briefly, WT-TGT samples were exchanged twice against a 1 M ammonium acetate pH 7.5 buffer using microcentrifuge gel-filtration columns (Zeba 0.5 mL, Thermo Scientific). Next, protein concentration was determined spectrophotometrically at 280 nm (Nano-Drop 2000 spectrophotometer, Thermo Scientific).
Native MS experiments were carried out on a hybrid Q-TOF mass spectrometer (Synapt G2 HDMS, Waters) equipped with an automated chip-based nanoESI source (Triversa Nanomate, Advion Biosciences) operating in the positive ion mode. External calibrations were generated from the multiple charged ions produced by a 2 μM horse heart myoglobin solution diluted in a 1:1 (v/v) water: acetonitrile mixture acidified with 1% (v/v) formic acid (denaturing MS) and singly charged cesium iodide clusters diluted to 2 g∙L^-1 in a 1:1 (v/v) water: isopropanol solution (native MS).
Titration experiments in native conditions (1 M NH4Ac pH 7.5) were next triggered by mixing 2.5 μM TGT monomers with 25 μM of each ligand separately (ratio 1:10). The final DMSO concentration of each mixture never exceeded 0.25% (v/v). Non-covalent TGT dimers and TGT-ligand complexes were preserved in the gas phase according fine-tuned instrumental parameters, improving ion desolvation and transmission while maintaining intact structures (Vc = 80V, Pi = 6 mbar).
Relative quantification of TGT monomers was performed from charge states peak intensities of both monomeric (10 to 14+) and dimeric complexes (15 to 20+), using MassLynx 4.1 (Waters). TGT dimer disruption was determined for each ligand through their destabilization factor (Fig 8) which corresponds to their associated ratio of TGT monomers normalized from the apo-condition (S7 Fig; S1 Table). Standard deviations are calculated here from analytical triplicates. For the sake of reliability and comparability, all these experiments were performed within the same day, from identical experimental and instrumental conditions using the same buffer exchanged TGT batch (frozen and thawed only once).

Z. mobilis TGT [2] = target: T1, Z. mobilis TGT; conditions: cited from earlier work
Z. mobilis TGT [3] = target: T1, Z. mobilis TGT; test: TGT-catalyzed incorporation of radio-labeled guanine into tRNA (inhibition constants); type: biochemical
Description: The inhibition constants (Ki) of ligands 1 to 9, which are listed in Fig 2, were determined previously (except that of 4, which was determined in this study)[19, 20, 23, 26] via a well-established assay monitoring the TGT-catalyzed incorporation of radio-labeled guanine into tRNA. […] This substituent addresses the ribose-33/uracil-33 pocket by forming an H-bond to the main chain carbonyl of Ala232 (Fig 1 and S3 and S4 Figs).
The concentration of Z. mobilis TGT amounted to 9 nM, [8-^3H]-guanine was used at a (saturating) concentration of 10 μM and tRNA^Tyr at a concentration of 1.5 μM. Aliquots of 15 μL were withdrawn for scintillation counting every 60 minutes (in total four).
The Ki value was averaged over three measurements. The preparation of E.coli tRNA^Tyr (ECYC2) via in vitro transcription was carried out using the RiboMAX™ Large Scale RNA Production System-T7 (Promega) according to the vendor´s protocol.

[4] = Ligand dilution in native MS buffer (precipitation); type: physicochemical; conditions: 1 M NH4Ac pH 7.5
[5] = ionization corrected, data for 1 determined previously

T1 sequence (P28720 whole entry): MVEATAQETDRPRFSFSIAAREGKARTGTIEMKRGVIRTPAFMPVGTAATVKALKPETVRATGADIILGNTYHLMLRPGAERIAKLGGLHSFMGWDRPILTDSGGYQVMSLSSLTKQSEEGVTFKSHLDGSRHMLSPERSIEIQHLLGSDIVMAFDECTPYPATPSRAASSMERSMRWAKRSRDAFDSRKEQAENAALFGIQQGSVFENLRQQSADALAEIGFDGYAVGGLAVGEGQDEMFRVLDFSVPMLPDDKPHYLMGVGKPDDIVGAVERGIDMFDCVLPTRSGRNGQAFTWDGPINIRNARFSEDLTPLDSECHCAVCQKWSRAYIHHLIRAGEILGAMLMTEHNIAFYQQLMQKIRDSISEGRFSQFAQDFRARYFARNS

Row | SMILES | -TΔS^0 (Z. mobilis TGT [1]; HEPES buffer) | ΔH^0obs (Z. mobilis TGT [1]; HEPES buffer) | Kd (Z. mobilis TGT [1]; ITC, 298 K) [nM] | ΔG^0 (Z. mobilis TGT [1]; ITC) | -TΔS^0 (Z. mobilis TGT [1]; TRIS buffer) | ΔH^0obs (Z. mobilis TGT [1]; TRIS buffer) | -TΔS^0 (Z. mobilis TGT [1]; Tricin buffer) | ΔH^0obs (Z. mobilis TGT [1]; Tricin buffer) | -TΔS^0 (Z. mobilis TGT [1]; [5]) [kJ/mol] | ΔH^0bind (Z. mobilis TGT [1]; [5]) [kcal/mol] | protons picked up during binding (Z. mobilis TGT [1]; slope of linear regression) | Relative proportion of TGT monomers (TGT homodimer) [%] | effect on TGT dimer stability / monomer proportion, in words (TGT homodimer) | increase of affinity compared to the unsubstituted lin-benzoguanine (factor) (Z. mobilis TGT [2]; Ki ratio) | Ki (Z. mobilis TGT [2]) [nM] | factor by which 1 is more potent than 3 (Z. mobilis TGT [3]; radio-labeled assay, Ki ratio 1 vs 3) | Ki (Z. mobilis TGT [3]; determined in this study, competitive with respect to tRNA substrate, averaged over three measurements) [nM] | precipitation upon ligand dilution in buffer [4]
1 | CNc1nc2cc3nc(N)[nH]c(=O)c3cc2[nH]1 [Inhibitor 1] | 34.2 ± 1.9^29 kJ∙mol^-1 | -74.8 ± 1.8^29 kJ∙mol^-1 | 52 ± 7 | -41.6 ± 0.3^29 kJ∙mol^-1 | 9.3 ± 0.9^29 kJ∙mol^-1 | -50.9 ± 0.9^29 kJ∙mol^-1 | 25.1 ± 0.3^29 kJ∙mol^-1 | -66.7 ± 0.1^29 kJ∙mol^-1 | 52.0 | -22.4 | 0.89 protons per mole of the formed complex | 3.4 | No effect on dimer stability | 70 | 58 ± 36 | 6 | – | –
2 | CNc1nc2c(CCNCC3CCC(C#Cc4cccnc4)CC3)c3nc(N)[nH]c(=O)c3cc2[nH]1 (centres unmarked) [Inhibitor 4] | – | – | – | – | – | – | – | – | – | – | – | 5.6 | small effect might be given | – | – | – | 193 ± 41 | partial precipitation; also recorded: To a lower extent, a similar phenomenon was also observed
